Measured values as given in US12384775B2, “Pyrimid-2-yl-pyrazole compounds as IRAK inhibitors” (Rigel Pharmaceuticals, Inc., priority 2022, dated 2025).

Assays:
[1] = Plasma protein binding, equilibrium dialysis (RED), rat; format: in vitro ADME; details: for recovery at 5 μM / fraction unbound at 5 μM: Rat plasma, drug 5 μM; for fraction unbound at 5 μM: read-out: % bound (converted); for Free Fraction in Whole Blood Assay, Rat: plasma free fraction
Experimental: Brain and plasma drug binding were performed by equilibrium dialysis using the Rapid Equilibrium Dialysis (RED) device. Briefly, 300 μL of plasma or brain homogenate (1 brain/3 buffer) containing drug (5 μM) was equilibrated (4-18 h) against 500 μL of buffered saline. After incubation, the concentration of drug in plasma/brain homogenate and buffer was determined by LC-MS/MS.
Recovery is calculated by determining the total amount of drug in 50 μL of plasma and 50 μL buffer after the incubation and comparing that value to the amount of drug in 50 μL of a plasma sample that was not incubated. For the protein binding assay, drug was added to the plasma and this plasma was added to one side of the dialysis device while buffer was added to the other. After filing the plasma chamber of the equilibrium device, a 50 μL aliquot of plasma was mixed with 50 μL of buffer and then quenched with stop reagent. Drug recovery=(Drug buffer+Drug plasma)/(drug in initial plasma)

[2] = tested on: TLR7-induced TNF-α production in human primary dendritic cells (DC); assay: Gardiquimod-induced TNF-α in human monocyte-derived dendritic cells (DC); format: cell-based; details: Dendritic cell, gardiquimod 4 μg/ml, read-out: Cell Assays IC50, TNFα (DC, Gard)
Experimental: Human peripheral blood mononuclear cells (PBMC) (400 million) were allowed to adhere in a T-175 flask containing 15 ml RPMI media (10% FBS) for 2 hours at 37° C., 5% CO2 to capture the monocytes.
After 2 hours, the media including floating cells was carefully removed and 12 ml of fresh RPMI media (10% FBS) containing GM-CSF (100 ng/ml) and IL-4 (20 ng/ml) were added to the adherent monocytes. The monocytes were allowed to differentiate for 7 days at 37° C., 5% CO2 for 7 days, supplementing with fresh GM-CSF and IL-4 after 3 days.
The differentiated dendritic cells (DC) were harvested by centrifugation (1200 rpm/5 min). The DCs were primed at 37° C., 5% CO2 for 24 hours with 50 ng/ml IFN-7 (1000 U/ml) at 50K/well in 100 μL/well of fresh RPMI media (10% FBS) in a white clear bottom 96 well plate.
Compound was serially diluted in DMSO from 2.5 mM in 4-fold dilutions, and then diluted 1:125 in RPMI 1640 complete media with 10% FBS. The primed DCs were pre-incubated with test compound for 1 hour at 37° C., 5% CO2 by adding 100 μl of RPMI media containing 2× concentrated test compound per well (0.5% final DMSO concentration).
The DCs were stimulated with gardiquimod (10 μL per well of 20× concentrated gardiquimod solution in RPMI media to give a final concentration of 4 μg/ml) at 37° C., 5% CO2 for an additional 18 hours. […] TNF-α was quantitated by ELISA, following the kit protocol.

[3] = tested on: TLR4-induced TNF-α production by human THP-1 cells; assay: TLR4-induced TNF-α in THP-1 cells; format: cell-based
Experimental: THP-1 cells (100K in 100 μL/well) were primed with 25 ng/mL IFN-γ for 18 hours at 37° C., 5% CO2. Compound was serially diluted in DMSO from 2.5 mM in 4-fold dilutions, and then diluted 1:125 in RPMI 1640 complete media with 10% FBS. 100 μL/well 2× compound was mixed with the 100 μL/well IFN-7 primed THP-1 in 96 well flat-bottom white tissue culture plates. The cells were pre-incubated with compound for 1 hour at 37° C., 5% CO2 and before addition of 10 μL/well 21×LPS to give a final concentration of […] for LPS. The cells were stimulated with LPS for 18 hours at 37° C., 5% CO2. After centrifugation, 100 μL/well supernatant was extracted by using a multichannel pipette. IL-23p19 or TNF-α protein in the supernatant were measured by sandwich ELISA. The remaining IFN-7 primed THP-1 cell pellets were used to perform cell viability assays to determine compound cell toxicity. The plates were read with a luminometer, and the chemiluminescence values were entered into Athena (Rigel) for curve fitting, EC50 calculation, and database storage.

[4] = tested on: TLR2-induced TNF-α production in human primary dendritic cells (DC); assay: TLR2-induced TNF-α in human primary dendritic cells; format: cell-based
[5] = tested on: TLR4-dependent cytokine production in mouse macrophages; assay: TLR4-dependent cytokine production in mouse macrophages; format: cell-based

Row | SMILES | recovery at 5 μM [1] | fraction unbound at 5 μM [1] | Free Fraction in Whole Blood Assay, Rat [1] | IC50 [2] | TLR4-induced TNF-α production by human THP-1 cells [3] | TLR2-induced TNF-α production in human primary dendritic cells (DC) [4] | TLR4-dependent cytokine production in mouse macrophages [5]
1 | CCO[C@H]1CC[C@H](n2cc(NC(=O)c3csc(-c4cn[nH]c4)n3)c(-c3nc(F)ccc3F)n2)CC1 [Comparison-1, reference compound] | 68.3% | 0.007 | 0.7% | 19 nM |  |  | 
2 | CCO[C@H]1CC[C@H](n2cc(NC(=O)c3csc(-c4cn[nH]c4)n3)c(-c3ncccn3)n2)CC1 [Compound I-1, N-(1-((1r,4r)-4-ethoxycyclohexyl)-3-(pyrimidin-2-yl)-1H-pyrazol-4-yl)-2-(1H-pyrazol-4-yl)thiazole-4-carboxamide] | 73.9% | 0.037 | 3.7% | 5 nM | inhibits | blocks | potent inhibitor
